For 3 compounds, EC50 and Activity results are on record in ChEMBL document CHEMBL1212807, “Chemical reprogramming of Caenorhabditis elegans germ cell fate” (Nat Chem Biol, 2010).

Activity calls are given as the source filed them. No cut-off for these calls is given here.

Usually EC50 stands for the concentration needed to bring the measured effect to its halfway point. The low end stands for an effect from little substance, the high end for a need for much substance.

Experiment [1] deals with Caenorhabditis elegans. The experiment is described as follows: Induction of oocyte production in Caenorhabditis elegans Bristol isolate N2 with puf-1; lip-1 double mutant.
Experiment [2] deals with Caenorhabditis elegans. Briefly: Induction of oocyte production in Caenorhabditis elegans Bristol isolate N2 with […]; lip-1 double mutant at 100 uM. The format is functional.
The subject of experiment [3] is Caenorhabditis elegans. The experiment is described as follows: Decrease in activated MPK-1/ERK levels in Caenorhabditis elegans Bristol isolate N2 by Western blot method at 50 uM. In kind it is functional, organism-based. In general terms: In western blotting, separated proteins are transferred to a membrane and probed.
Experiment [4] concerns Caenorhabditis elegans. The experiment is described as follows: Induction of oocyte production in Caenorhabditis elegans Bristol isolate N2 with […]; lip-1 double mutant assessed as change in oocyte-specific cellular morphology at 50 uM. The format is functional.
Experiment [5] deals with Caenorhabditis elegans. The experiment is described as follows: Induction of oocyte production in Caenorhabditis elegans Bristol isolate N2 with […]; lip-1 double mutant assessed as expression of oocyte marker RME-2 50 uM. In kind it is functional, organism-based.

Turning to `N#CC(=C(/N)Sc1ccccc1N)/C(C#N)=C(\N)Sc1ccccc1N`, the EC50 in the experiment with Caenorhabditis elegans [1] was found to be 2000 nM. Consider `COc1cccc(-c2cc(=O)c3ccccc3o2)c1N`, for which the Activity in the experiment with Caenorhabditis elegans [2] worked out at 5.3%. For `O=C(NOC[C@H](O)CO)c1ccc(F)c(F)c1Nc1ccc(I)cc1F` [MIRDAMETINIB], the result in the experiment on Caenorhabditis elegans [3] and in the experiment on Caenorhabditis elegans [5] was Active. The Activity in the experiment with Caenorhabditis elegans [4] amounted to 91%.
